Assay results as given in US7718768B2, “Biologically active peptide [sequence]” (CMS Peptides Patent Holding Company Limited, priority 2001, dated 2010).
Marks after values point to notes of the source that are not given here. No end group written: not given here.

Columns and labels:
[1] = test system: Masugi nephritis rat model; assay: Masugi nephritis rat model; type: in vivo, Sprague Dawley (SD) rats
Text: The anti-serum was then exuded and isolated. Whole blood was collected from 15 healthy SD rats. […] Treatment started on the day of induction. […] Adequate drinking water was supplied.

[2] = immunity organ weight test (thymus gland index, spleen index); type: in vivo, BALB/c mice; details: IFN-γ and IL-2 groups 3×10^5 IU/kg/day, X ± SD
Method: The above substances were all dissolved in 0.5 ml saline and injected intraperitoneal (i.p.) for 15 continuous days, once per day.
(§1) One day after the last test substance administration (day 16), the liver, spleen, and thymus gland were separated and blotted dry with filter paper and weighed. The phagocytosis index α was calculated as below: α=(^3√K)(W÷WLS) key: W: body weight WLS: weight of liver plus spleen Thymus gland index(%)=(thymus weight/body weight)×100% Spleen index(%)=(spleen weight/body weight)×100%

mononuclear phagocyte = assay: carbon particle clearance test, phagocytotic activity of mononuclear phagocyte; type: in vivo, BALB/c mice; design: key: α = (cube root of K)×(body weight ÷ liver+spleen weight); details: peptide 5 μg/kg/day i.p. 15 days; IFN-γ and IL-2 groups 3×10^5 IU/kg/day; X ± SD
Method: On the next day after the last test substance administration (day 16), the mice were injected with […] body weight India ink (5 times dilution with normal saline) from the tail vein.
One minute and five minutes after Indian ink injection, 20 μl blood was obtained from the eye can thus with a heparinized tubing. The blood was mixed with 2 ml 0.1% w/v Na2CO3 and then OD680nm obtained. The outline clear index K was calculated by the following formula: K=(lgA1−lgA2)÷(t2−t1) Key: A1: OD680nm at first minute A2: OD680nm at fifth minute t2: 5 minutes […]
as §1

anti-SRBC antibody = assay: Sheep Red Blood Cell (SRBC) hemolysis test, anti-SRBC antibody formation; type: in vivo, BALB/c mice; details: SRBC on day 12, IFN-γ and IL-2 groups 3×10^5 IU/kg/day, X ± SD
Method: Sheep red blood cells (SRBC) were prepared by collecting blood from cervical vein and put into a sterile flask with glass beads. The flask was shaken for 3 minutes and the blood then mixed with Alsever solution (glucose 2.05 g, NaCl 0.4 g, […] 0.8 g, adjust to 100 ml with distilled water) and stored at 4° C. Immediately before use, samples were centrifuged at 130 g, 5 minutes to collect the SRBC. The cells were washed two times by re-suspension and centrifugation in normal saline. Then the cell pellet was collected by centrifugation at 180 g for 10 minutes and re-suspended in saline to make the final working SRBC suspension, 2% (v/v).
Complement was prepared by adding 10 volumes of fresh Cavy serum into one volume centrifuge packed SRBC, and then gently shaking for 30 minutes at 4° C. The SRBC was removed by centrifugation at 200 g for 10 minutes. 10 volumes of normal saline were added to obtain the working complement solution.
The test substances were administered as described in section 1.1, plus intraperitoneal injection 0.2 ml SRBC per mouse on day 12. On the day after the last test substance administration (day 16), blood was collected from the eye canthus and left at room temperature for one hour for serum exudation. After centrifugation at 200 g for 10 minutes, the serum was diluted by 500 times with normal saline.
To 1 ml diluted mouse serum of each mouse, 0.5 ml SRBC suspension was added. Ice cold. Then 1 ml working complement solution was added and incubated at 37° C. water bath for 10 minutes. Reactions were terminated by ice cold. Samples were then centrifuged at 200 g for 10 minutes to obtain the supernatant.
To 1 ml of this supernatant, 3 ml Drabkin solution was added and left at room temperature for 10 minutes. OD540nm was obtained.
Reference OD540nm was obtained by mixing 0.25 ml SRBC suspension with Drabkin solution to 4 ml and placed at room temperature for 10 minutes before OD540nm was taken. Sample serum index=(OD540nm of test sample[…]reference OD540nm)×500 3. The Effect of Peptides on the Phagocytosis Function of Mononuclear Phagocyte and the Weight of Immune Organ^[8,9].

[3] = after three weeks of treatment, peptides 50 μg/kg/day i.p., hydrocortisone 3.3 mg/kg/day i.p.
[4] = peptide 0.5 μg/kg/day i.p. 15 days

Molecule: C[C@]12CCC(=O)C=C1CC[C@@H]1[C@@H]2[C@@H](O)C[C@@]2(C)[C@H]1CC[C@]2(O)C(=O)CO [hydrocortisone, Hydrocortisone, reference compound]
- Serum creatinine level [1, 3]: 239 ± 107 µmol/L
- growth rate of treated nephritis rats ([1]; peptides 50 μg/kg/day i.p., hydrocortisone 3.3 mg/kg/day i.p.): slower growth rate than normal

Molecule: VGMGEKDSY [CMS018]
- urine protein level ([1]; Week 1, 24 hours urine, peptides 50 μg/kg/day i.p., hydrocortisone 3.3 mg/kg/day i.p.): 7.0 ± 3.7 mg
- urine protein level ([1]; Week 2, 24 hours urine, peptides 50 μg/kg/day i.p., hydrocortisone 3.3 mg/kg/day i.p. (halved after first week)): 5.5 ± 7.9 mg
- Serum creatinine level [1, 3]: 67 ± 1 µmol/L
- spleen index [1, 3]: 3.3 ± 0.8 ×10^−3
- renal pathological microscopic examination ([1]; peptides 50 μg/kg/day i.p. 3 weeks, 6 heaviest kidneys per group): all pathological parameters of all rats were normal
- weight of thymus gland (thymus gland index) [2, 4]: 0.20 ± 0.03 %
- weight of thymus gland (thymus gland index) ([2]; peptide 5 μg/kg/day i.p. 15 days): 0.24 ± 0.04*^@^ %
- weight of thymus gland (thymus gland index) ([2]; peptide 50 μg/kg/day i.p. 15 days): 0.23 ± 0.02*^@^ %
- phagocytotic index (mononuclear phagocyte): 6.7 ± 1.2
- anti-SRBC antibody formation (sample serum index) (anti-SRBC antibody; [4]): 3 ± 1* Unit
- anti-SRBC antibody formation (sample serum index) (anti-SRBC antibody; peptide 500 μg/kg/day i.p. 15 days): 66 ± 16* Unit
